This note sets out measurements from patent publication US20230357210A1, “NITROGEN-CONTAINING CONDENSED HETEROCYCLIC COMPOUND HAVING AN OXIME GROUP, AGRICULTURAL OR HORTICULTURAL HERBICIDE COMPRISING THE COMPOUND, AND METHOD FOR USING THE COMPOUND OR THE HERBICIDE” (NIHON NOHYAKU CO., LTD., priority 2020, published 2023).

The structures appear in SMILES notation.

Regarding `CCON=C(N)c1ccc(S(C)(=O)=O)c(-c2nc3cc(C(F)(F)F)ccc3n2C)n1` [1-205, N′-ethoxy-5-methylsulfonyl-6-[1-methyl-5-(trifluoromethyl)benzimidazol-2-yl]pyridine-2-carboxamidine], the melting point – broadly, the temperature of the solid-liquid transition – fell in the range of 149 to 150 °C.
As for `CCO/N=C(\N)c1cnc(S(=O)(=O)NC)c(-c2nc3cc(C(F)(F)F)ccc3n2C)n1` [7-46, (Z)-N′-ethoxy-6-(1-methyl-5-(trifluoromethyl)-1H-benzo[d]imidazol-2-yl)-5-(N-methylsulfamoyl)pyrazine-2-carboximidamide], the figure is 244 to 246 °C; as for `CCO/N=C(\N)c1ncc(S(=O)(=O)NC)c(-c2nc3ccccc3n2C)n1` [8-6, (Z)-N′-ethoxy-4-(1-methyl-1H-benzo[d]imidazol-2-yl)-5-(N-methylsulfamoyl)pyrimidine-2-carboximidamide], 222 to 223 °C.
For `CCON=C(N)c1ccc(C(=O)OC)c(-c2nc3cc(C(F)(F)F)ccc3n2C)n1` [2-123, N′-ethoxy-5-methoxycarbonyl-6-[1-methyl-5-(trifluoromethyl)benzimidazol-2-yl)pyridine-2-carboxamidine] the value was 46 to 47 °C.
Turning to `CCO/N=C(\C)c1ccc(C(=O)OC)c(-c2nc3cc(SC(F)(F)F)ccc3n2C)n1` [2-105, 6-[(E)-N-ethoxy-C-methyl-carbonimidoyl]-2-[1-methyl-5-(trifluoromethylthio)benzimidazol-2-yl]pyridine-3-carboxylic acid methyl ester], the melting point was 121 to 122 °C.
As for `CCON=C(N)c1ccc(S(=O)(=O)NC)c(-c2nc3cc(C(F)(F)F)ccc3n2C)n1` [1-210, N′-ethoxy-5-methylsulfamoyl-6-[1-methyl-5-(trifluoromethyl)benzimidazol-2-yl)pyridine-2-carboxamidine], the figure is 173 to 174 °C; as for `CCON=C(NC)c1ccc(S(C)(=O)=O)c(-c2nc3cc(C(F)(F)F)ccc3n2C)n1` [1-216, N′-ethoxy-N-methyl-5-methylsulfonyl-6-[1-methyl-5-(trifluor omethyl)benzimidazol-2-yl]pyridine-2-carboxamidine], 154 to 155 °C.
As for `CCO/N=C/c1ccc(C(=O)N(C)C)c(-c2nc3cc(SC(F)(F)F)ccc3n2C)n1` [2-95, 6-[(E)-ethoxyiminomethyl]-N,N-dimethyl-2-[1-methyl-5-(trifluoromethylthio)benzimidazol-2-yl]pyridine-3-carboxamide], the figure is 118 to 119 °C.
As for `CCON=C(N)c1cc(C)c(Cl)c(-c2nc3cc(C(F)(F)F)ccc3n2C)n1` [3-65, 5-chloro-N′-ethoxy-4-methyl-6-[1-methyl-5-(trifluoromethyl)benzimidazol-2-yl]pyridine-2-carboxamidine], the figure is 144 to 145 °C; as for `CCON=C(c1ccc(S(C)(=O)=O)c(-c2nc3cc(C(F)(F)F)ccc3n2C)n1)N(C)C` [1-220, N′-ethoxy-N,N-dimethyl-5-methylsulfonyl-6-[1-methyl-5-(trifluoromethyl)benzimidazol-2-yl)pyridine-2-carboxamidine], 150 to 151 °C; as for `CCO/N=C/c1ccc(C(=O)O)c(-c2nc3cc(SC(F)(F)F)ccc3n2C)n1` [2-81, 6-[(E)-ethoxyiminomethyl]-2-[1-methyl-5-(trifluoromethylthio)benzimidazol-2-yl]pyridine-3-carboxylic acid], 195 to 196 °C.
Turning to `CCON=C(N)c1cc(C)c(S(C)(=O)=O)c(-c2nc3cc(C(F)(F)F)ccc3n2C)n1` [3-70, N′-ethoxy-4-methyl-5-methylsulfonyl-6-[1-methyl-5-(trifluor omethyl)benzimidazol-2-yl]pyridine-2-carboxamidine], the melting point lay within 246 to 247 °C.
